Measured values from patent US20050255096A1, “Combination treatment for acute myocardial infarction” (priority 2002, published 2005).

Test system: patients with acute myocardial infarction
Assay: Effect of the combination on the mortality of the patients with acute myocardial infarction (180 day mortality)
Format: in vivo
Conditions: 6-hour infusion of levosimendan, bolus 6, 12 or 24 μg/kg then 0.1, 0.2 or 0.4 μg/kg/min
Procedure: Effect of the combination on the mortality of the patients with acute myocardial infarction
Patients who had suffered from acute myocardial infarction within five days received placebo or a 6-hour infusion of levosimendan using a bolus of 6, 12 or 24 μg/kg and subsequent infusion of 0.1, 0.2 or 0.4 μg/kg/min. Patients were divided according to whether they had received thrombolytic therapy or not. The 180 day mortality was measured. It can be seen that the combination provided synergistic reduction in the mortality of patients with acute myocardial infarction.

[1] = patients who did not receive thrombolytic, N = 331
[2] = patients who received thrombolytic, N = 70

## CC1CC(=O)NN=C1c1ccc(NN=C(C#N)C#N)cc1 (single isomer, unassigned; (-)) [Levosimendan, (−)-enantiomer of [[4-(1,4,5,6-tetrahydro-4-methyl-6-oxo-3-pyridazinyl)phenyl]hydrazono]propanedinitrile]
[1]
  180-day mortality, Event (%): 24.8%
  180-day mortality, Event n: 82
[2]
  180-day mortality, Event (%): 12.8%
  180-day mortality, Event n: 9
